Legend:
[1] = Lipophilicity by RP-HPLC (methanol/water, RP-18 column); format: physicochemical; details: for −S (slope of the regression curve), RP–HPLC / log kw: methanol/water, RP-HPLC; for log kw: extrapolated to zero methanol concentration, 25 °C; for Φ0 (chromatographic lipophilicity parameter), RP–HPLC: Φ0 = −log kw/S
Protocol: The HPLC experiments were performed on the Shimadzu HPLC system (Kyoto, Japan) equipped with solvent delivery pump LC-20AD, UV–VIS detector model SPD-20A, degasser model DGU-20A5, a column oven model CTO-20A, and a column Superspher® 100 RP-18 (4 μm), Merck (Darmstadt, Germany). Methanol and water for HPLC from POCH (Gliwice, Poland) were used as solvents. Mobile phase methanol/water varied in the various ratios. Methanol concentration expressed as volume fraction v/v, varied in the range from 0.55 to 0.95 in constant steps of 0.05. Compounds 1–28 were dissolved in methanol (1 mg/mL). The mobile phase flow rate was 0.7 mL/min. The injection volume was 0.02 mL. All analyzes were performed at 25 °C. Experiments were performed in triplicate with similar results.
The retention coefficient k was calculated from the following relationship:(1) k=tr/tm−1, where tr [min]—retention time, and tm [min]—time for dead volume (measured by use of uracil).
To determine the linear relationship between the values of the log k parameter and the concentration of methanol in the mobile phase, the Soczewiński–Wachtmeister equation was used:(2) logk= log kw+SΦ, where log kw —value extrapolated to zero methanol concentration, Φ —methanol concentration in the mobile phase (volume fraction v/v), and S—the slope of the regression curve.
The parameter Φ0 was calculated from the equation:(3) Φ0=−log kw/S.

[2] = Lipophilicity by RP-TLC (methanol/water, HPTLC 60RP-18 plates); format: physicochemical; details: for −S (slope of the regression curve), RP–TLC / RM0: methanol/water, RP-TLC; for RM0: extrapolated to zero methanol concentration, 22 °C; for Φ0 (chromatographic lipophilicity parameter), RP–TLC: Φ0 = −RM0/S
Protocol: Specifically, 10 × 10 cm plates with silica gel HPTLC 60RP-18 WF254s (Merck, Darmstadt, Niemcy) were used as the stationary phase. Methanol and water for HPLC from POCH (Gliwice, Poland) were used as solvents. Methanol concentration expressed as volume fraction v/v, varied in the range from 0.5 to 0.7 in constant steps of 0.05. Test compounds were dissolved in methanol (2 mg/mL), and then samples (0.01 mL) of each were applied to plates, which were developed in a horizontal DS chamber (Chromdes, Lublin, Poland).
The developing distance was 8 cm. Developed plates were air-dried and observed under 254 nm ultraviolet lamp. All analyzes were performed at 22 °C. Experiments were performed in triplicate with similar results.
For all the compounds, the relative lipophilicity RM values for five methanol–water mobile phases were calculated by the use of the following formula:(4) RM=log[1−RF/RF].
The linear relationship between the RM values and the concentration of methanol in the mobile phase to determine the lipophilicity parameters RM0 is described by the following equation:(5) RM=RM0+SΦ, where Φ —methanol concentration in the mobile phase (volume fraction v/v), and S—the slope of the regression curve.
The quantity Φ0 was calculated from the following equation:(6) Φ0=−RM0/S.

Compound	−S (slope of the regression curve), RP–HPLC [1]	log kw [1]	Φ0 (chromatographic lipophilicity parameter), RP–HPLC [1]	−S (slope of the regression curve), RP–TLC [2]	RM0 [2]	Φ0 (chromatographic lipophilicity parameter), RP–TLC [2]
CC(C)NC1=NC(=O)C(c2ccccc2)S1 (stereo not drawn) [Compound 6]	4.3069	2.84	0.659	2.049	1.58	0.771
CC(C)NC1=NC(=O)C(c2ccc(Br)cc2)S1 (stereo not drawn) [Compound 7]	4.422	3.22	0.728	3.870	2.85	0.736

From publication PMC10418735, “Lipophilic Studies and In Silico ADME Profiling of Biologically Active 2-Aminothiazol-4(5H)-one Derivatives” (International Journal of Molecular Sciences, 2023)
